Measurements as given in patent US11279714B2, “Anti-infective compounds” (priority 2014, dated 2022).

Legend:
Type in all cases: cell-based, Mycobacterium
Conditions in all cases: REMA, 1 week + 1 day resazurin; relative to H37Rv
[1] = tested on: MDR-137 (clinical isolate of multidrug-resistance tuberculosis)
[2] = tested on: MDR-33 (clinical isolate of multidrug-resistance tuberculosis)
[3] = tested on: MDR-146 (clinical isolate of multidrug-resistance tuberculosis)

SMILES | Antibacterial activity MDR-137 [1] | Antibacterial activity MDR-33 [2] | Antibacterial activity MDR-146 [3]
Cc1nc2cc(NC(=O)c3cc4sc(N5CCC(CO)CC5)nc4s3)ccc2o1 [Compound 144] | +++ (+++ indicates <2 times of MIC50 on wild type strain (H37Rv)) | +++ (+++ indicates <2 times of MIC50 on wild type strain (H37Rv)) | +++ (+++ indicates <2 times of MIC50 on wild type strain (H37Rv))
COCCN(C)c1nc2sc(C(=O)Nc3ccc4oc(C)nc4c3)cc2s1 [Compound 202] | +++ (+++ indicates <2 times of MIC50 on wild type strain (H37Rv)) | +++ (+++ indicates <2 times of MIC50 on wild type strain (H37Rv)) | +++ (+++ indicates <2 times of MIC50 on wild type strain (H37Rv))
Cc1nc2cc(NC(=O)c3cc4sc(N5CCOCC5)nc4s3)ccc2o1 [Compound 83] | +++ (+++ indicates <2 times of MIC50 on wild type strain (H37Rv)) | +++ (+++ indicates <2 times of MIC50 on wild type strain (H37Rv)) | +++ (+++ indicates <2 times of MIC50 on wild type strain (H37Rv))
COc1ccc(NC(=O)c2cc3sc(N4CCC(C(=O)N(C)C)CC4)nc3s2)cc1 [Compound 127] | +++ (+++ indicates <2 times of MIC50 on wild type strain (H37Rv)) | +++ (+++ indicates <2 times of MIC50 on wild type strain (H37Rv)) | +++ (+++ indicates <2 times of MIC50 on wild type strain (H37Rv))
